Reference: paper PMC7729733, “Biological Properties of New Chiral 2-Methyl-5,6,7,8-tetrahydroquinolin-8-amine-based Compounds” (Molecules, 2020)

Legend:
[1] = system: MSTO-211H (biphasic mesothelioma); experiment: Cell growth assay (Trypan blue), MSTO-211H cells; format: cell-based, human; settings: for IC50: 72 h, Trypan blue
Protocol: (§1) A2780 (human ovarian carcinoma) and HT-29 (human colorectal adenocarcinoma) were grown in RPMI 1640 (Sigma Chemical Co., St. Louis, MO, USA), and MSTO-211H (human biphasic mesothelioma) were grown in RPMI 1640 (Sigma Chemical Co.) supplemented with 2.38 g/L Hepes, 0.11 g/L pyruvate sodium, and 2.5 g/L glucose. Then, 1.5 g/L NaHCO3, 10% heat-inactivated fetal calf serum (Biowest), 100 U/mL penicillin, 100 μg/mL streptomycin, and 0.25 μg/mL amphotericin B (Sigma Chemical Co.) were added to the media. The cells were cultured at 37 °C in a moist atmosphere of 5% carbon dioxide in air. Cells (2.5–3 × 10^4) were seeded into each well of a 24-well cell culture plate. After incubation for 24 h, various concentrations of the test agents were added to the complete medium and incubated for a further 72 h. A Trypan blue assay was performed to determine cell viability. Cytotoxicity data were expressed as IC50 values, i.e., the concentration of the test compound able to induce a 50% reduction in cell number compared with control cultures.

[2] = system: HeLa (human cervix carcinoma cells); experiment: Cell growth assay, HeLa cells; format: cell-based; settings: 96 h, racemic compounds, 4 days, Coulter counter
Protocol: (§2) HeLa (human cervix carcinoma) and CEM (human T-lymphoblast) were grown in Dulbecco’s modified Eagle’s medium (DMEM; Gibco, Carlsbad, CA, USA), supplemented with 0.01 M Hepes (Gibco) and 1 mM sodium pyruvate (Gibco) in a humidified 5% CO2 incubator at 37 °C. HMEC-1 (human microvascular endothelial cells) was maintained in Dulbecco’s modified Eagle’s medium (DMEM)/low glucose containing glutamine (2 mM). The media were supplemented with 10% fetal bovine serum (FBS, Gibco), penicillin ([…]), streptomycin ([…]), and amphotericin B ([…]). CEM cells were seeded in 96-well plates at 60,000 cells/well in the presence of different concentrations of the compounds, and allowed to proliferate for 72 h. HeLa cells were seeded in 96-well plates at 15,000 cells/well in the presence of different concentrations of the compounds. After 4 days of incubation, the cells were trypsinized and counted. HMEC-1 cells were seeded in 48-well plates at 20,000 cells/well. After 24 h, the compounds were added at different concentrations. The cells were allowed to proliferate for 4 days in the presence of the compounds, trypsinized, and counted. All cells were counted by means of a Coulter counter (Analis, Belgium).

[3] = system: A2780 (ovarian carcinoma); experiment: Cell growth assay (Trypan blue), A2780 cells; format: cell-based, human; settings: 72 h, Trypan blue
Protocol: as §1

[4] = system: CEM (human T-lymphocyte cells); experiment: Cell growth assay, CEM cells; format: cell-based; settings: racemic compounds, 72 h, Coulter counter
Protocol: as §2

[5] = system: HMEC-1 (human dermal microvascular endothelial cells); experiment: Cell growth assay, HMEC-1 cells; format: cell-based; settings: HMEC-1, 96 h, racemic compounds, 4 days, Coulter counter
Protocol: as §2

[6] = system: HT-29 (colorectal adenocarcinoma); experiment: Cell growth assay (Trypan blue), HT-29 cells; format: cell-based, human; settings: 72 h
Protocol: as §1

[7] = molecular target: quinone reductase 2 (QR2); design: method as in PMID 22716080, PMID 16765324; settings: read-out: QR2 inhibitory activity IC50; cited from earlier work
[8] = Homo sapiens, MSTO-211H, racemic compounds
[9] = Homo sapiens, A2780, 72 h, racemic compounds
[10] = Homo sapiens, HT-29, racemic compounds
[11] = Homo sapiens, MSTO-211H, pure enantiomers
[12] = Homo sapiens, A2780, 72 h, pure enantiomers
[13] = Homo sapiens, HT-29, pure enantiomers

| SMILES | melting point | IC50 [1, 8] | IC50 [3, 9] | IC50 [6, 10] | IC50 ([1]; pure enantiomers) | IC50 ([3]; pure enantiomers) | IC50 ([6]; pure enantiomers) | IC50 [1, 11] | IC50 [3, 12] | IC50 [6, 13] | IC50 [2] | IC50 [4] | IC50 [5] | cytotoxic effect on MSTO-211H (in words) ([1]; pure enantiomers) | IC50 [7] |
| --- | --- | --- | --- | --- | --- | --- | --- | --- | --- | --- | --- | --- | --- | --- | --- |
| Cc1ccc(O)c(CN[C@H]2CCCc3ccc(C)nc32)c1 [(S)-2b, 4-methyl-2-(((2-methyl-5,6,7,8-tetrahydroquinolin-8-yl)amino)methyl)phenol] | – | – | – | – | > 20 µM | 11.5 ± 2.6 µM | > 20 µM | – | – | – | – | – | – | inactive | – |
| Cc1ccc2c(n1)[C@H](/N=C/c1ccccn1)CCC2 [(R)-3a, (E)-N-(2-methyl-5,6,7,8-tetrahydroquinolin-8-yl)-1-(pyridin-2-yl)methanimine] | – | – | – | – | – | – | – | 14.9 ± 1.4 µM | 11.7 ± 2 µM | > 20 µM | – | – | – | – | – |
| CN1C(=O)c2cc(C(N)=O)nc3c(N)c(Cl)c(N)c1c23 [Compound 4, ammosamide B] | – | – | – | – | – | – | – | – | – | – | – | – | – | – | 0.061 µM |
| Cc1ccc(O)c(CN[C@@H]2CCCc3ccc(C)nc32)c1 [(R)-2b, 4-methyl-2-(((2-methyl-5,6,7,8-tetrahydroquinolin-8-yl)amino)methyl)phenol] | – | – | – | – | – | – | – | > 20 µM | 15.2 ± 2.3 µM | > 20 µM | – | – | – | inactive | – |
| Cc1ccc2c(n1)C(NCc1cccc(C)c1O)CCC2 (centres unmarked) [Compound 1b, 2-methyl-6-(((2-methyl-5,6,7,8-tetrahydroquinolin-8-yl)amino)methyl)phenol] | 89.2 to 91.1 °C | 28 ± 4 µM | 42 ± 5 µM | 57 ± 6 µM | – | – | – | – | – | – | 93 ± 10 µM | 66 ± 47 µM | 63 ± 2 µM | – | – |
| Cc1ccc(O)c(/C=N/C2CCCc3ccc(C)nc32)c1 (centres unmarked) [Compound 2a, (E)-4-methyl-2-(((2-methyl-5,6,7,8-tetrahydroquinolin-8-yl)imino)methyl)phenol] | 101.8 to 103.4 °C | 95 ± 5 µM | > 100 µM | > 100 µM | – | – | – | – | – | – | > 100 µM | > 100 µM | > 100 µM | – | – |
| Cc1ccc(O)c(CNC2CCCc3ccc(C)nc32)c1 (racemic) [Compound 2b, 4-methyl-2-(((2-methyl-5,6,7,8-tetrahydroquinolin-8-yl)amino)methyl)phenol] | 89.5 to 90.8 °C | 35 ± 10 µM | 25 ± 5 µM | 62 ± 8 µM | – | – | – | – | – | – | 75 ± 11 µM | 23 ± 4 µM | 60 ± 2 µM | – | – |
| Cc1ccc2c(n1)[C@@H](/N=C/c1ccccn1)CCC2 [(S)-3a, (E)-N-(2-methyl-5,6,7,8-tetrahydroquinolin-8-yl)-1-(pyridin-2-yl)methanimine] | – | – | – | – | 11.8 ± 2.3 µM | 11.4 ± 0.4 µM | > 20 µM | – | – | – | – | – | – | – | – |
| Cc1ccc2c(n1)C(/N=C/c1cccc(C)c1O)CCC2 (centres unmarked) [Compound 1a, (E)-2-methyl-6-(((2-methyl-5,6,7,8-tetrahydroquinolin-8-yl)imino)methyl)phenol] | 102.2 to 103.8 °C | 69 ± 3 µM | 65 ± 9 µM | 83 ± 5 µM | – | – | – | – | – | – | > 100 µM | > 100 µM | > 100 µM | – | – |
| Cc1ccc2c(n1)[C@@H](/N=C/c1ncc[nH]1)CCC2 [(S)-5a, (E)-1-(1H-imidazol-2-yl)-N-(2-methyl-5,6,7,8-tetrahydroquinolin-8-yl)methanimine] | – | – | – | – | > 20 µM | 17.2 ± 3 µM | > 20 µM | – | – | – | – | – | – | ineffective | – |
| CNc1c(Cl)c(N)c2c3c(cc(C(N)=O)nc13)C(=O)N2C [Compound 5] | – | – | – | – | – | – | – | – | – | – | – | – | – | – | 0.0041 µM |

More lines, main results first:

| melting point | IC50 [1, 8] | IC50 [3, 9] | IC50 [6, 10] | IC50 ([1]; pure enantiomers) | IC50 ([3]; pure enantiomers) | IC50 ([6]; pure enantiomers) | IC50 [1, 11] | IC50 [3, 12] | IC50 [6, 13] | SMILES | IC50 [2] | IC50 [4] | IC50 [5] | cytotoxic effect on MSTO-211H (in words) ([1]; pure enantiomers) | IC50 [7] |
| --- | --- | --- | --- | --- | --- | --- | --- | --- | --- | --- | --- | --- | --- | --- | --- |
| 94.3 to 95.5 °C | 77 ± 7 µM | 36 ± 4 µM | 74 ± 3 µM | – | – | – | – | – | – | Cc1ccc2c(n1)C(NCc1cc3c4c(c1O)CCCN4CCC3)CCC2 (centres unmarked) [Compound 6b, 9-(((2-methyl-5,6,7,8-tetrahydroquinolin-8-yl)amino)methyl)-2,3,6,7-tetrahydro-1H,5H-pyrido[3 ,2,1-ij]quinolin-8-ol] | > 100 µM | 77 ± 32 µM | 81 ± 26 µM | – | – |
| 104.2 to 105.8 °C | 25 ± 11 µM | 36 ± 4 µM | 46 ± 7 µM | – | – | – | – | – | – | Cc1ccc2c(n1)C(/N=C/c1cc3c4c(c1O)CCCN4CCC3)CCC2 (centres unmarked) [Compound 6a, (E)-9-(((2-methyl-5,6,7,8-tetrahydroquinolin-8-yl)imino)methyl)-2,3,6,7-tetrahydro-1H,5H-pyrido [3,2,1-ij]quinolin-8-ol] | > 100 µM | 64 ± 32 µM | 82 ± 4 µM | – | – |
| 86.7 to 88.1 °C | 44 ± 5 µM | 38 ± 7 µM | 73 ± 6 µM | – | – | – | – | – | – | Cc1ccc2c(n1)C(NCc1ncc[nH]1)CCC2 (centres unmarked) [Compound 5b, N-((1H-imidazol-2-yl)methyl)-2-methyl-5,6,7,8-tetrahydroquinolin-8-amine] | 71 ± 3 µM | 51 ± 13 µM | 53 µM | – | – |
| 101.2 to 102.6 °C | 31 ± 7 µM | 13 ± 3 µM | 70 ± 2 µM | – | – | – | – | – | – | Cc1ccc2c(n1)C(/N=C/c1ncc[nH]1)CCC2 (racemic) [Compound 5a, (E)-1-(1H-imidazol-2-yl)-N-(2-methyl-5,6,7,8-tetrahydroquinolin-8-yl)methanimine] | 37 ± 9 µM | 43 ± 7 µM | 57 ± 4 µM | – | – |
| 87.8 to 89.2 °C | 15 ± 3 µM | 11 ± 3 µM | 42 ± 6 µM | – | – | – | – | – | – | Cc1ccc2c(n1)C(NCc1ccccn1)CCC2 (centres unmarked) [Compound 3b, 2-methyl-N-(pyridin-2-ylmethyl)-5,6,7,8-tetrahydroquinolin-8-amine] | > 100 µM | > 100 µM | > 100 µM | – | – |
| 90.3 to 92.2 °C | > 100 µM | > 100 µM | > 100 µM | – | – | – | – | – | – | Cc1ccc2c(n1)C(NCc1cn(C)cn1)CCC2 (centres unmarked) [Compound 4b, 2-methyl-N-((1-methyl-1H-imidazol-4-yl)methyl)-5,6,7,8-tetrahydroquinolin-8-amine] | > 100 µM | > 100 µM | 89 ± 2 µM | – | – |
| 102.8 to 104.3 °C | 30 ± 8 µM | 16 ± 2 µM | 42 ± 6 µM | – | – | – | – | – | – | Cc1ccc2c(n1)C(/N=C/c1ccccn1)CCC2 (racemic) [Compound 3a, (E)-N-(2-methyl-5,6,7,8-tetrahydroquinolin-8-yl)-1-(pyridin-2-yl)methanimine] | 34 ± 6 µM | 33 ± 7 µM | 77 ± 32 µM | – | – |
| 103.2 to 104.5 °C | 14 ± 1 µM | 11 ± 2 µM | 42 ± 8 µM | – | – | – | – | – | – | Cc1ccc2c(n1)C(/N=C/c1cn(C)cn1)CCC2 (centres unmarked) [Compound 4a, (E)-1-(1-methyl-1H-imidazol-4-yl)-N-(2-methyl-5,6,7,8-tetrahydroquinolin-8-yl)methanimine] | > 100 µM | > 100 µM | > 100 µM | – | – |
